Where “and” joins values, the source holds several entries; their conditions need not be identical. Identical values can stand only once. Entries after “also recorded” stand apart in the source; their conditions may differ. Like-named read-outs stand apart in the source and are kept apart here.
Tests used:
[1] = mouse, in vivo, po
Method: Timeline: 24 h-7 days. In the timeline, no fatal effects were observed.
Dosage: • Single dose at 500 mg/kg, i.p. • Single dose at 1000 mg/kg, i.p. • Single dose at 2000 mg/kg, p.o.

mice infused with Aβ42 = assay: Contextual fear memory in mice infused with Aβ42; type: in vivo, mouse; details: 3 or 10 mg/Kg, p.o., immediately after training
Method: Our next goal was to check if YF012403 can attenuate synaptic and cognitive dysfunction in APP/PS1 mice. We induced LTP or contextual fear memory in the presence of oligomeric Aβ42, or vehicle [S18]. In the LTP experiments 200 nM Aβ42 or vehicle were perfused through the bath solution for 20 min prior to the application of the θ-burst. In the behavioral experiments 200 nM Aβ42 or vehicle were bilaterally infused 15 min prior to the foot shock into dorsal hippocampus of the animal that had been pre-implanted with a cannula the week before. Aβ reduced LTP and contextual fear memory (FIG. 49). However, YF012403 (50 nM, for 10 min prior to the θ-burst in the LTP experiments; 3 or 10 mg/Kg, p.o., immediately after training in the behavioral experiments) ameliorated the electrophysiological and behavioral deficits (FIG. 49).

[2] = tested on: hippocampal slices treated with Aβ42; assay: LTP in hippocampal slices treated with 200 nM oligomeric Aβ42; type: cell-based, mouse; details: YF012403 50 nM for 10 min prior to the θ-burst
Method: Following cutting hippocampal slices were transferred to a recording chamber where they were maintained at 29° C. and perfused with artificial cerebrospinal fluid (ACSF) continuously bubbled with 95% O2 and 5% CO2. The ACSF composition in mM was: 124.0 NaCl, 4.4 KCl, 1.0 Na2HPO4, 25.0 NaHCO3, 2.0 CaCl2, 2.0 MgSO4, 10.0 glucose. CA1 fEPSPs were recorded by placing both the stimulating and the recording electrodes in CA1 stratum radiatum. BST was assayed either by plotting the stimulus voltages against slopes of fEPSP, or by plotting the peak amplitude of the fiber volley against the slope of the fEPSP. A 15 min baseline was recorded every min at an intensity that evokes a response ˜35% of the maximum evoked response. LTP was induced using q-burst stimulation (4 pulses at 100 Hz, with the bursts repeated at 5 Hz and each tetanus including 3 ten-burst trains separated by 15 sec). Responses were recorded for 1 hr after tetanization and measured as field-excitatory-post-synaptic potential (fEPSP) slope expressed as percentage of baseline.
In these experiments YF012403 (the cyclopropyl lead compound) was directly given to the hippocampal slices through the perfusion system for 10 min prior to the theta burst. Aβ42 was given for 20 minutes prior to the theta burst. Oligomeric Aβ42 was prepared as described previously (Stine et al., 2003). […]

CREB phosphorylation = type: cell-based, mouse
APP/PS1 mice = assay: Electrophysiological analysis (BST, LTP) of slices from mice previously treated i.p.; type: in vivo, mouse
Method: To add depth to the analysis of the functional changes that underlie the striking effects of sildenafil on APP/PS1 mice behavioral performance, synaptic function in hippocampi from the same mice was examined. […] The drug was administered either acutely or for 1 course of 3 week treatment. […] This dose yields concentrations of 2.5 μM cGMP in the hippocampus^[…]. […] Radial-arm water-maze (RAWM) was performed for 3 weeks. Then, the animals were sacrificed for electrophysiological recordings. To decide the time of administration of sildenafil in the acute experiments, a series of studies was performed in which the inhibitor was injected i.p. at 5 min before the electric shock or at 5 min before the first acquisition trial with the radial arm water maze. […] Thus, all the behavioral experiments on the acute effects of sildenafil reported in the result section were performed with injection after the training. Animals were sacrificed by cervical dislocation followed by decapitation. Hippocampi were quickly removed. Transverse hippocampal slices (400 μm) were cut and recorded according to standard procedures^[…]. For example, following cutting hippocampal slices were transferred to a recording chamber where they were maintained at 29° C. and perfused with artificial cerebrospinal fluid (ACSF) continuously bubbled with 95% O2 and 5% CO2. […] CA1 fEPSPs were recorded by placing both the stimulating and the recording electrodes in CA1 stratum radiatum. BST was assayed either by plotting the peak amplitude of the fiber volley against the slope of the fEPSP, or by plotting the stimulus voltages against slopes of fEPSP. For LTP experiments, a 15 min baseline was recorded every min at an intensity that evokes a response 35% of the maximum evoked response. […] Responses were recorded for 2 hrs after tetanization and measured as field-excitatory-post-synaptic potential (fEPSP) slope expressed as percentage of baseline. The results were expressed as mean±Standard Error Mean (SEM).

[3] = tested on: human Aβ40 and Aβ42 levels; assay: Determination of Aβ levels (ELISA of cerebral cortex)
[4] = humans; cited from earlier work
J20 mice = assay: Fear conditioning and RAWM in J20 mice; type: in vivo, mouse
[5] = rodents; cited from earlier work
[6] = 3 mg/kg, treated at 3 months, tested at 6-8 months
[7] = 6-8 month-old APP/PS1, 3 mg/Kg i.p. for 3 weeks at 3 months of age
[8] = 6-8 month-old WT, 3 mg/Kg i.p. for 3 weeks at 3 months of age
[9] = treated at 3 months, tested at 6-8 months, APP/PS1
[10] = 3-month-old APP/PS1, daily injections for 3 weeks
[11] = APP/PS1 at 7-10 months, injections for 3 weeks at 3 months

In the case of `COc1ccc(CNc2c(CO)cnc3c(C4CC4)cc(C#N)cc23)cc1Cl` [YF012403, 4-(3-chloro-4-methoxybenzylamino)-8-cyclopropyl-3-(hydroxymethyl)-quinoline-6-carbonitrile], the “safe dose in acute toxicity test” value [1] was “up to 2 g/kg”, the “effect on contextual fear memory deficit in Aβ42-infused mice in words” value (mice infused with Aβ42) was “ameliorates the contextual fear memory deficit; also recorded: ameliorated” and the “effect on LTP deficit in Aβ42-treated slices in words” value [2] was “ameliorates the LTP deficit; also recorded: ameliorated; also recorded: reverses LTP impairment”.
With `CCCc1nn(C)c2c(=O)[nH]c(-c3cc(S(=O)(=O)N4CCN(C)CC4)ccc3OCC)nc12` [sildenafil, 5-[2-ethoxy-5-(4-methyl-1-piperazinylsulphonyl)phenyl]-1-methyl-3-n-propyl-1,6-dihydro-7H-pyrazolo[4,3-d]pyrimidin-7-one] the “phospho-CREB immunofluorescence after tetanus, % of control” value (CREB phosphorylation) was 162.58±17.09% and 163.54±13.52% and 163.6±15.14% and 151.73±12.24%, the “minimum time needed for a positive effect on BST” value (APP/PS1 mice; [6]) was 2 weeks and the “minimum time needed for a positive effect on LTP” value (APP/PS1 mice; [6]) was 2 weeks. For the same compound, the “BST, fEPSP slope” value (APP/PS1 mice; [7]) was 1.03±0.12 V/sec, the “BST, fEPSP slope as % of vehicle-treated APP/PS1 mice” value (APP/PS1 mice; [7]) was roughly 160% and the “LTP as % of sildenafil-treated WT mice” value (APP/PS1 mice; [7]) was roughly 100%. For the same compound, the “LTP, % of baseline at 120 min” value (APP/PS1 mice; [7]) was 233.81±30.47%, the “BST, fEPSP slope” value (APP/PS1 mice; [8]) was 1.01±0.12 V/sec and the “BST, slope of input-output curve as % of vehicle-treated WT mice” value (APP/PS1 mice; [8]) was roughly 94%. For the same compound, the “LTP as % of vehicle-treated mice” value (APP/PS1 mice; [8]) was roughly 112%, the “LTP, % of baseline” value (APP/PS1 mice; [8]) was 234.67±17.19% and the “minimum concentration needed to improve BST” value (APP/PS1 mice; [9]) was 3 mg/kg. For the same compound, the “minimum concentration needed to improve LTP” value (APP/PS1 mice; [9]) was 3 mg/kg, the “minimum time needed for a positive effect on Aβ40 levels” value ([3]; 3 mg/kg at 3 months of age, measured at 7-8 months) was 3 weeks and the “minimum time needed for a positive effect on Aβ40” value ([3]; 3 mg/kg, measured immediately after treatment) was 2 weeks. For the same compound, the “minimum effective dose that decreases Aβ40 and Aβ42 levels” value ([3]; 3-month-old APP/PS1) was 3 mg/kg, the “Aβ40 as % of vehicle-treated APP/PS1 mice” value [3, 10] was roughly 64% and the Aβ40 level [3, 10] was 1.71±0.22 ng/mg cortex. The “Aβ42 as % of vehicle-treated APP/PS1 mice” value [3, 10] was roughly 80%, the Aβ42 level [3, 10] was 3.56±0.23 ng/mg cortex and the “effect on Aβ levels in words” value ([3]; APP/PS1, 1.5 mg/kg for 3 weeks) was “did not decrease Aβ levels”. For the same compound, the “Aβ40 as % of vehicle-treated APP/PS1 mice” value [3, 11] was roughly 65%, the Aβ40 level [3, 11] was 49.59±7.93 ng/mg cortex and the “Aβ42 as % of vehicle-treated APP/PS1 mice” value [3, 11] was roughly 73%. For the same compound, the Aβ42 level [3, 11] was 32.55±3.27 ng/mg cortex, the “minimum effective dose that decreases Aβ40 and Aβ42 levels” value ([3]; treated at 3 months, measured at 7-10 months) was 3 mg/kg and the in vivo half-life [4] was roughly 4 h. The “effect on contextual learning in words” value (J20 mice; 3 mg/kg i.p. immediately after training) was “improved contextual learning”, the “effect on spatial working memory in words” value (J20 mice; daily injection after training for 3 weeks) was “improved spatial working memory” and the in vivo half-life [5] was 24 min.

Source: US9974782B2, “Phosphodiesterase inhibitors and uses thereof” (THE TRUSTEES OF COLUMBIA UNIVERSITY IN THE CITY OF NEW YORK, priority 2008, dated 2018)
